Values quoted from earlier work, collected in PubChem BioAssay AID1259409 (Chemical Carcinogenesis Research Information System (CCRIS), 2018).

Test system: rodent chemically induced tumor inhibition, incidence and multiplicity
Experiment: CCRIS tumor inhibitor studies
Conditions: Route [Inhibitor]: ORAL, Species: HAMSTER

CC1=C(/C=C/C(C)=C/C=C/C(C)=C/C(=O)Nc2ccc(O)cc2)C(C)(C)CCC1
tumour outcome (control, treated, inhibition, significance) (Carcinogen: N-NITROSOBIS(2-OXOPROPLYL)AMINE [60599-38-4], DL-ETHIONINE [67-21-0], L-METHIONINE [63-68-3], Carcinogen: N-NITROSOBIS(2-OXOPROPLYL)AMINE [60599-38-4], DL-ETHIONINE [67-21-0], L-METHIONINE [63-68-3], Dose [Inhibitor]: 0, 0.01% IN DIET FOR 55 D BEGINNING ON DAY 50, 1 WK POST LAST CARCINOGEN DOSE (STUDY DURATION: 105 D), Target Tissue: Type of Lesion: PANCREATIC DUCT, CARCINOMA, Dose [Carcinogen]: 50 MG/KG BOP ONCE ON DAY 0, THEN 20 MG/KG TWICE ON DAYS 18 AND 32, 500 MG/KG DL-ETHIONINE 1X/D FOR 4 D BEGINNING ON DAY, Dose [Carcinogen]: 50 MG/KG BOP ONCE ON DAY 0, THEN 20 MG/KG TWICE ON DAYS 18 AND 32, 500 MG/KG DL-ETHIONINE 1X/D FOR 4 D BEGINNING ON DAY, Promoter: CHOLINE-DEFICIENT DIET): 17/17 (100%), 17/17 (100%), 0%, not significant
tumour outcome (control, treated, inhibition, significance) (Carcinogen: N-NITROSOBIS(2-OXOPROPLYL)AMINE [60599-38-4], DL-ETHIONINE [67-21-0], L-METHIONINE [63-68-3], Carcinogen: N-NITROSOBIS(2-OXOPROPLYL)AMINE [60599-38-4], DL-ETHIONINE [67-21-0], L-METHIONINE [63-68-3], Dose [Inhibitor]: 0, 0.04% IN DIET FOR 55 D BEGINNING ON DAY 50, 1 WK POST LAST CARCINOGEN DOSE (STUDY DURATION: 105 D), Target Tissue: Type of Lesion: LIVER: INTRAHEPATIC CHOLANGIOCARCINOMA, Dose [Carcinogen]: 50 MG/KG BOP ONCE ON DAY 0, THEN 20 MG/KG TWICE ON DAYS 18 AND 32, 500 MG/KG DL-ETHIONINE 1X/D FOR 4 D BEGINNING ON DAY, Dose [Carcinogen]: 50 MG/KG BOP ONCE ON DAY 0, THEN 20 MG/KG TWICE ON DAYS 18 AND 32, 500 MG/KG DL-ETHIONINE 1X/D FOR 4 D BEGINNING ON DAY, Promoter: CHOLINE-DEFICIENT DIET): 7/17 (41%), 14/15 (93%), -127%, p<0.01
tumour outcome (control, treated, inhibition, significance) (Carcinogen: N-NITROSOBIS(2-OXOPROPLYL)AMINE [60599-38-4], DL-ETHIONINE [67-21-0], L-METHIONINE [63-68-3], Carcinogen: N-NITROSOBIS(2-OXOPROPLYL)AMINE [60599-38-4], DL-ETHIONINE [67-21-0], L-METHIONINE [63-68-3], Dose [Inhibitor]: 0, 0.04% IN DIET FOR 55 D BEGINNING ON DAY 50, 1 WK POST LAST CARCINOGEN DOSE (STUDY DURATION: 105 D), Target Tissue: Type of Lesion: PANCREATIC DUCT, CARCINOMA, Dose [Carcinogen]: 50 MG/KG BOP ONCE ON DAY 0, THEN 20 MG/KG TWICE ON DAYS 18 AND 32, 500 MG/KG DL-ETHIONINE 1X/D FOR 4 D BEGINNING ON DAY, Dose [Carcinogen]: 50 MG/KG BOP ONCE ON DAY 0, THEN 20 MG/KG TWICE ON DAYS 18 AND 32, 500 MG/KG DL-ETHIONINE 1X/D FOR 4 D BEGINNING ON DAY, Promoter: CHOLINE-DEFICIENT DIET): 17/17 (100%), 15/15 (100%), 0%, not significant
tumour outcome (control, treated, inhibition, significance) (Carcinogen: N-NITROSOBIS(2-OXYPROPYL)AMINE, 60599-38-4, Dose [Inhibitor]: 0.05, 0.1 OR 0.2 MILLIMOLAR/KG DIET FOR 32 WK STARTING 1 WK AFTER THE CARCINOGEN DOSE (STUDY DURATION: 33 WK), Strain/Sex: SYRIAN/FEMALE, Target Tissue: Type of Lesion: COMMON DUCT: ADENOMA, Dose [Carcinogen]: 40 MG/KG ONCE, Promoter: NONE USED): 4/10 (40%), 26/30 (87%), -118%, p<0.025
tumour outcome (control, treated, inhibition, significance) (Carcinogen: N-NITROSOBIS(2-OXYPROPYL)AMINE, 60599-38-4, Dose [Inhibitor]: 0.05, 0.1 OR 0.2 MILLIMOLAR/KG DIET FOR 32 WK STARTING 1 WK AFTER THE CARCINOGEN DOSE (STUDY DURATION: 33 WK), Strain/Sex: SYRIAN/FEMALE, Target Tissue: Type of Lesion: GALL BLADDER: ADENOMA, Dose [Carcinogen]: 40 MG/KG ONCE, Promoter: NONE USED): 6/10 (60%), 29/30 (97%), -62%, not significant
tumour outcome (control, treated, inhibition, significance) (Carcinogen: N-NITROSOBIS(2-OXYPROPYL)AMINE, 60599-38-4, Dose [Inhibitor]: 0.05, 0.1 OR 0.2 MILLIMOLAR/KG DIET FOR 32 WK STARTING 1 WK AFTER THE CARCINOGEN DOSE (STUDY DURATION: 33 WK), Strain/Sex: SYRIAN/FEMALE, Target Tissue: Type of Lesion: LIVER: ADENOMA, Dose [Carcinogen]: 40 MG/KG ONCE, Promoter: NONE USED): 6/10 (60%), 10/30 (33%), 45%, not significant
tumour outcome (control, treated, inhibition, significance) (Carcinogen: N-NITROSOBIS(2-OXYPROPYL)AMINE, 60599-38-4, Dose [Inhibitor]: 0.05, 0.1 OR 0.2 MILLIMOLAR/KG DIET FOR 32 WK STARTING 1 WK AFTER THE CARCINOGEN DOSE (STUDY DURATION: 33 WK), Strain/Sex: SYRIAN/FEMALE, Target Tissue: Type of Lesion: LUNG: ADENOMA, Dose [Carcinogen]: 40 MG/KG, ONCE, ONE WK PRIOR TO START OF AGENT TREATMENT, Promoter: NONE USED): 3/10 (30%), 18/30 (60%), -100%, not significant
tumour outcome (control, treated, inhibition, significance) (Carcinogen: N-NITROSOBIS(2-OXYPROPYL)AMINE, 60599-38-4, Dose [Inhibitor]: 0.05, 0.1 OR 0.2 MILLIMOLAR/KG DIET FOR 32 WK STARTING 1 WK AFTER THE CARCINOGEN DOSE (STUDY DURATION: 33 WK), Strain/Sex: SYRIAN/FEMALE, Target Tissue: Type of Lesion: PANCREAS: ADENOMA, Dose [Carcinogen]: 40 MG/KG ONCE, Promoter: NONE USED): 10/10 (100%), 30/30 (100%), 0%, not significant
tumour outcome (control, treated, inhibition, significance) (Carcinogen: N-NITROSOBIS(2-OXYPROPYL)AMINE, 60599-38-4, Dose [Inhibitor]: 0.05, 0.1 OR 0.2 MILLIMOLAR/KG DIET FOR 32 WK STARTING 1 WK AFTER THE CARCINOGEN DOSE (STUDY DURATION: 33 WK), Strain/Sex: SYRIAN/FEMALE, Target Tissue: Type of Lesion: PANCREAS: CARCINOMA, Dose [Carcinogen]: 40 MG/KG ONCE, Promoter: NONE USED): 4/10 (40%), 16/30 (53%), -33%, not significant
tumour outcome (control, treated, inhibition, significance) (Carcinogen: N-NITROSOBIS(2-OXYPROPYL)AMINE, 60599-38-4, Dose [Inhibitor]: 0.05, 0.1 OR 0.2 MILLIMOLAR/KG DIET FOR 32 WK STARTING 1 WK AFTER THE CARCINOGEN DOSE (STUDY DURATION: 33 WK), Strain/Sex: SYRIAN/MALE, Target Tissue: Type of Lesion: COMMON DUCT: ADENOMA, Dose [Carcinogen]: 40 MG/KG ONCE, Promoter: NONE USED): 4/12 (33%), 20/21 (95%), -188%, not significant
tumour outcome (control, treated, inhibition, significance) (Carcinogen: N-NITROSOBIS(2-OXYPROPYL)AMINE, 60599-38-4, Dose [Inhibitor]: 0.05, 0.1 OR 0.2 MILLIMOLAR/KG DIET FOR 32 WK STARTING 1 WK AFTER THE CARCINOGEN DOSE (STUDY DURATION: 33 WK), Strain/Sex: SYRIAN/MALE, Target Tissue: Type of Lesion: GALL BLADDER: ADENOMA, Dose [Carcinogen]: 40 MG/KG ONCE, Promoter: NONE USED): 3/12 (25%), 20/21 (95%), -280%, not significant
tumour outcome (control, treated, inhibition, significance) (Carcinogen: N-NITROSOBIS(2-OXYPROPYL)AMINE, 60599-38-4, Dose [Inhibitor]: 0.05, 0.1 OR 0.2 MILLIMOLAR/KG DIET FOR 32 WK STARTING 1 WK AFTER THE CARCINOGEN DOSE (STUDY DURATION: 33 WK), Strain/Sex: SYRIAN/MALE, Target Tissue: Type of Lesion: LIVER: ADENOMA, Dose [Carcinogen]: 40 MG/KG ONCE, Promoter: NONE USED): 6/12 (50%), 7/21 (33%), 34%, not significant
